22 compounds from patent publication US9365522B2, “Pyrazole amide derivative” (AMGEN INC., priority 2015, dated 2016) can be followed below.

The structures appear in SMILES notation.

For this assay, the target named is T1, human RORγ-LBD (Homo sapiens, UniProt P51449).
T1 construct: made in house; host or cells: E. coli (BL-21)
T1 sequence (P51449 262-518): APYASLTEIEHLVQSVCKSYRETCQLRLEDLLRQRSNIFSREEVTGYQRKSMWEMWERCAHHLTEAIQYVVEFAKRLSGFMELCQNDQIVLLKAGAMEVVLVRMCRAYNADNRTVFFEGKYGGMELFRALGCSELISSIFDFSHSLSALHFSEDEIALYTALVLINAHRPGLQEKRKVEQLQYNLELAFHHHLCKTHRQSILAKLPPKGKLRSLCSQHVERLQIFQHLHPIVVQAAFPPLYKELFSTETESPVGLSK
Description: ROR gamma coactivator peptide recruitment Alphascreen assay (RORγ-LBD binding to GRIP1 coactivator peptide). It is filed as biochemical. The conditions noted are these: 5 nM human RORγ-LBD, 30 nM 7-β-hydroxycholesterol, 50 nM biotinylated GRIP1 coactivator peptide, overnight incubation at room temperature; read-out: result (pIC50, RORγ coactivator peptide recruitment Alphascreen assay) (converted). In short, it runs like this: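 His/Flag-tagged human RORγ-LBD (aa 262-518, E. coli-expressed, 5 nM) with agonist 7-β-hydroxycholesterol (30 nM) and biotinylated GRIP1 LXXLL peptide (50 nM) in HEPES pH 7.4 buffer, 2.5% DMSO. Compound 1-in-2 dilutions; Alphascreen bead signal read after overnight incubation at room temperature; pIC50 calculated.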
(In general: Alpha assays give light when donor and acceptor beads are brought close together.)
On to `C[C@@]1(CN(CCc2c(Cl)cncc2Cl)C(=O)c2cnn([C@H]3CC[C@](C)(C(=O)O)CC3)c2C(F)(F)F)CCCO1` [Example 682, trans-4-(4-((2-(3,5-dichloro-4-pyridinyl)ethyl)(((2S)-2-methyltetrahydro-2-furanyl)methyl)carbamoyl)-5-(trifluoromethyl)-1H-pyrazol-1-yl)-1-methylcyclohexanecarboxylic acid], for which the IC50 is 50.1 nM.

As for `C[C@@H]1C[C@H](n2ncc(C(=O)N(CC(=O)c3c(Cl)cccc3Cl)CC3CC(C)(C)C3)c2C(F)(F)F)CC[C@@H]1C(=O)O` [Example 683, (1S,2R,4R)-4-(4-((2-(2,6-dichlorophenyl)-2-oxoethyl)((3,3-dimethylcyclobutyl)methyl)carbamoyl)-5-(trifluoromethyl)-1H-pyrazol-1-yl)-2-methylcyclohexanecarboxylic acid], the IC50 is 8.91 nM. To `C[C@H]1C[C@@H](n2ncc(C(=O)N(CC(=O)c3c(Cl)cccc3Cl)CC3CC(C)(C)C3)c2C(F)(F)F)CC[C@H]1C(=O)O` [Example 684, (1R,2S,4S)-4-(4-((2-(2,6-dichlorophenyl)-2-oxoethyl)((3,3-dimethylcyclobutyl)methyl)carbamoyl)-5-(trifluoromethyl)-1H-pyrazol-1-yl)-2-methylcyclohexanecarboxylic acid] belongs 13.8 nM; to `CC1(C)C[C@H](CN(CC(=O)c2c(Cl)cncc2Cl)C(=O)c2cnn([C@H]3CC[C@](C)(C(=O)O)CC3)c2C(F)(F)F)O1` [Example 685, trans-4-(4-((2-(3,5-dichloro-4-pyridinyl)-2-oxoethyl)(((2R)-4,4-dimethyl-2-oxetanyl)methyl)carbamoyl)-5-(trifluoromethyl)-1H-pyrazol-1-yl)-1-methylcyclohexanecarboxylic acid], 97.7 nM; to `CC1(C)C[C@@H](CN(CC(=O)c2c(Cl)cncc2Cl)C(=O)c2cnn([C@H]3CC[C@](C)(C(=O)O)CC3)c2C(F)(F)F)O1` [Example 686, trans-4-(4-((2-(3,5-dichloro-4-pyridinyl)-2-oxoethyl)(((2S)-4,4-dimethyl-2-oxetanyl)methyl)carbamoyl)-5-(trifluoromethyl)-1H-pyrazol-1-yl)-1-methylcyclohexanecarboxylic acid], 91.2 nM. In the case of `Cc1cc(Cl)c(C(=O)CN(CC(C)(C)C)C(=O)c2cnn([C@H]3CC[C@](C)(C(=O)O)CC3)c2C(F)(F)F)c(Cl)n1` [Example 687, trans-4-(4-((2-(2,4-dichloro-6-methyl-3-pyridinyl)-2-oxoethyl)(2,2-dimethylpropyl)carbamoyl)-5-(trifluoromethyl)-1H-pyrazol-1-yl)-1-methylcyclohexanecarboxylic acid] it was 14.8 nM. On to `CC1(C)C[C@H](Cc2c(Cl)cncc2Cl)N(C(=O)c2cnn([C@H]3CC[C@](C)(C(=O)O)CC3)c2C(F)(F)F)C1` [Example 688], for which the IC50 was 110 nM. To `Cc1cc(Cl)c(C(=O)CN(C(=O)c2cnn([C@H]3CC[C@](C)(C(=O)O)CC3)c2C(F)(F)F)[C@H]2C[C@@H](C(C)(C)C)C2)c(Cl)c1` [Example 689, trans-4-(4-((2-(2,6-dichloro-4-methylphenyl)-2-oxoethyl)(cis-3-(2-methyl-2-propanyl)cyclobutyl)carbamoyl)-5-(trifluoromethyl)-1H-pyrazol-1-yl)-1-methylcyclohexanecarboxylic acid] belongs 4.17 nM; to `C[C@]1(C(=O)O)CC[C@H](n2ncc(C(=O)N(CC(=O)c3c(Cl)cc(F)cc3Cl)CC3(F)CC3)c2C(F)(F)F)CC1` [Example 690, trans-4-(4-((2-(2,6-dichloro-4-fluorophenyl)-2-oxoethyl)((1-fluorocyclopropyl)methyl)carbamoyl)-5-(trifluoromethyl)-1H-pyrazol-1-yl)-1-methylcyclohexanecarboxylic acid], 6.76 nM. On to `CC1(CN(CC(=O)c2c(Cl)cc(F)cc2Cl)C(=O)c2cnn([C@H]3CC[C@](C)(C(=O)O)CC3)c2C(F)(F)F)CCC1` [Example 691, trans-4-(4-((2-(2,6-dichloro-4-fluorophenyl)-2-oxoethyl)((1-methylcyclobutyl)methyl)carbamoyl)-5-(trifluoromethyl)-1H-pyrazol-1-yl)-1-methylcyclohexanecarboxylic acid], for which the IC50 is 1.66 nM. To `CC(C)(CN(CC(=O)c1c(Cl)cncc1Cl)C(=O)c1cnn([C@H]2CC[C@](C)(C(=O)O)CC2)c1C(F)(F)F)C(F)(F)F` [Example 692, trans-4-(4-((2-(3,5-dichloro-4-pyridinyl)-2-oxoethyl)(3,3,3-trifluoro-2,2-dimethylpropyl)carbamoyl)-5-(trifluoromethyl)-1H-pyrazol-1-yl)-1-methylcyclohexanecarboxylic acid] belongs 3.24 nM.

Consider `Cc1cc(C)c(C(=O)CN(CC(C)(C)C)C(=O)c2cnn([C@H]3CC[C@](C)(C(=O)O)CC3)c2C(F)(F)F)c(Cl)n1` [Example 693, trans-4-(4-((2-(2-chloro-4,6-dimethyl-3-pyridinyl)-2-oxoethyl)(2,2-dimethylpropyl)carbamoyl)-5-(trifluoromethyl)-1H-pyrazol-1-yl)-1-methylcyclohexanecarboxylic acid], for which the IC50 is 43.7 nM. Take `C[C@]1(C(=O)O)CC[C@H](n2ncc(C(=O)N(CC(=O)c3c(Cl)cc(F)cc3Cl)CC3CCC3)c2C(F)(F)F)CC1` [Example 694, trans-4-(4-((cyclobutylmethyl)(2-(2,6-dichloro-4-fluorophenyl)-2-oxoethyl)carbamoyl)-5-(trifluoromethyl)-1H-pyrazol-1-yl)-1-methylcyclohexanecarboxylic acid]: the IC50 is 3.98 nM. In the case of `C[C@]1(C(=O)O)CC[C@H](n2ncc(C(=O)N(CC(=O)c3c(Cl)cc(F)cc3Cl)CC3CC3)c2C(F)(F)F)CC1` [Example 695, trans-4-(4-((cyclopropylmethyl)(2-(2,6-dichloro-4-fluorophenyl)-2-oxoethyl)carbamoyl)-5-(trifluoromethyl)-1H-pyrazol-1-yl)-1-methylcyclohexanecarboxylic acid], the IC50 is 10 nM. Take `CC1(CN(CC(=O)c2c(Cl)cc(F)cc2Cl)C(=O)c2cnn([C@H]3CC[C@](C)(C(=O)O)CC3)c2C(F)(F)F)CCCCC1` [Example 696, trans-4-(4-((2-(2,6-dichloro-4-fluorophenyl)-2-oxoethyl)((1-methylcyclohexyl)methyl)carbamoyl)-5-(trifluoromethyl)-1H-pyrazol-1-yl)-1-methylcyclohexanecarboxylic acid]: the IC50 is 1.62 nM. In the case of `CC(C)(C)CN(CC(=O)c1c(Cl)cnc(Cl)c1Cl)C(=O)c1cnn([C@H]2CC[C@](C)(C(=O)O)CC2)c1C(F)(F)F` [Example 697, trans-4-(4-((2,2-dimethylpropyl)(2-oxo-2-(2,3,5-trichloro-4-pyridinyl)ethyl)carbamoyl)-5-(trifluoromethyl)-1H-pyrazol-1-yl)-1-methylcyclohexanecarboxylic acid] it was 12.9 nM.

Turning to `C[C@]1(C(=O)O)CC[C@H](n2ncc(C(=O)N(CC(=O)c3c(Cl)cc(F)cc3Cl)CC3CCCC3)c2C(F)(F)F)CC1` [Example 698, trans-4-(4-((cyclopentylmethyl)(2-(2,6-dichloro-4-fluorophenyl)-2-oxoethyl)carbamoyl)-5-(trifluoromethyl)-1H-pyrazol-1-yl)-1-methylcyclohexanecarboxylic acid], the IC50 is 2.09 nM. Take `CC(C)(C)[C@H]1C[C@@H](N(CC(=O)c2c(Cl)cncc2Cl)C(=O)c2cnn([C@H]3CC[C@](C)(C(=O)O)CC3)c2C(F)(F)F)C1` [Example 699, trans-4-(4-((2-(3,5-dichloro-4-pyridinyl)-2-oxoethyl)(cis-3-(2-methyl-2-propanyl)cyclobutyl)carbamoyl)-5-(trifluoromethyl)-1H-pyrazol-1-yl)-1-methylcyclohexanecarboxylic acid]: the IC50 was 39.8 nM. As to `CC(C)CCN(CC(=O)c1c(Cl)cncc1Cl)C(=O)c1cnn([C@H]2CC[C@](C)(C(=O)O)CC2)c1C(F)(F)F` [Example 700, trans-4-(4-((2-(3,5-dichloro-4-pyridinyl)-2-oxoethyl)(3-methylbutyl)carbamoyl)-5-(trifluoromethyl)-1H-pyrazol-1-yl)-1-methylcyclohexanecarboxylic acid], the IC50 is 13.2 nM. In the case of `Cc1cc(C)c(C(=O)CN(Cc2cc(F)cc(F)c2)C(=O)c2cnn([C@H]3CC[C@](C)(C(=O)O)CC3)c2C(F)(F)F)c(Cl)n1` [Example 702, trans-4-(4-((2-(2-chloro-4,6-dimethyl-3-pyridinyl)-2-oxoethyl)(3,5-difluorobenzyl)carbamoyl)-5-(trifluoromethyl)-1H-pyrazol-1-yl)-1-methylcyclohexanecarboxylic acid], the IC50 is 7.94 nM.

`Cc1cc(Cl)c(C(=O)CN(CC2(F)CC2)C(=O)c2cnn([C@H]3CC[C@](C)(C(=O)O)CC3)c2C(F)(F)F)c(Cl)n1` [Example 703, trans-4-(4-((2-(2,4-dichloro-6-methyl-3-pyridinyl)-2-oxoethyl)((1-fluorocyclopropyl)methyl)carbamoyl)-5-(trifluoromethyl)-1H-pyrazol-1-yl)-1-methylcyclohexanecarboxylic acid]: the IC50 was 70.8 nM. Regarding `Cc1cc(Cl)c(C(=O)CN(CCC(C)C)C(=O)c2cnn([C@H]3CC[C@](C)(C(=O)O)CC3)c2C(F)(F)F)c(Cl)c1` [Example 704, trans-4-(4-((2-(2,6-dichloro-4-methylphenyl)-2-oxoethyl)(3-methylbutyl)carbamoyl)-5-(trifluoromethyl)-1H-pyrazol-1-yl)-1-methylcyclohexanecarboxylic acid], the IC50 is 2.45 nM.
